In this experiment the target is T1, Full-length glucokinase (beta cell isoform) (Homo sapiens, UniProt P35557).
T1 construct: Full-length glucokinase (beta cell isoform) was His-tagged at N-terminus; His tag (N); made in house
T1 sequence (P35557 1-465): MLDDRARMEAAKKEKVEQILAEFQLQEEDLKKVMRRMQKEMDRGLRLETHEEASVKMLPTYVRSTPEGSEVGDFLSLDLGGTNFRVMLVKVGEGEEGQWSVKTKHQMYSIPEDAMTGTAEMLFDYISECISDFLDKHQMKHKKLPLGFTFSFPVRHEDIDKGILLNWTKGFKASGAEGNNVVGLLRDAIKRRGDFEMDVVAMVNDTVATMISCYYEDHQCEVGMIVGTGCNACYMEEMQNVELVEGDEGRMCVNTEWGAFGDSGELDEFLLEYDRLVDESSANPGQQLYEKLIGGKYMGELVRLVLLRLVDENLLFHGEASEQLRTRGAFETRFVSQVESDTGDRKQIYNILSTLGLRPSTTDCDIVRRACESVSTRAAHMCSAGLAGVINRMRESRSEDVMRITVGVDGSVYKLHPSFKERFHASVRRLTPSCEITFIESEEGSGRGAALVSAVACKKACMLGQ
The experiment is described as follows: Glucokinase biochemical assay (PK/LDH-coupled, NADH depletion at 340 nm): % activation, EC50, % max activation. The following applies: 5 mM glucose; for activation at 10 µM: read-out: % Activation at 10 uM; for EC50: GK activation, read-out: EC50; for Emax: read-out: % Max Activation. A digest of the protocol: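 Activation expressed as (Va/Vo−1)×100, where initial rates with and without compound come from NADH depletion at 340 nm over 200–900 s. Enzyme is His-tagged human beta-cell GK, full length, run at room temperature in HEPES buffer with 1 mM ATP and 5 mM glucose. DMSO 1%.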

Where [1] appears, read: 10 uM compound, % Activation=(Va/Vo−1)×100.

For orientation: EC50 means the concentration at which the effect is half-maximal.

For the compound `Cc1ccc(NC(=O)c2cc(Oc3ccc(S(C)(=O)=O)cc3)c3cc(Cn4ccnc4C)oc3c2)nc1` [Example 320, 2-[(2-Methyl-1H-imidazol-1-yl)methyl]-N-(5-methylpyridin-2-yl)-4-[4-(methylsulfonyl)phenoxy]-1-benzofuran-6-carboxamide], the EC50 came to 2.5 µM. Besides, the activation at 10 µM under setting [1] was found to be 39.2%. Under “fitted maximum activation”, the Emax was found to be 41%.

Consider `Cn1ccc(NC(=O)c2cc(Oc3ccc(-c4ncon4)c(Cl)c3)c3c(c2)OC(C)(C)C3)n1` [Example 189, 4-(3-Chloro-4-[1,2,4]oxadiazol-3-yl-phenoxy)-2,2-dimethyl-2,3-dihydro-benzofuran-6-carboxylic acid (1-methyl-1H-pyrazol-3-yl)-amide], for which the EC50 is 0.87 µM. For the same compound, the activation at 10 µM under setting [1] was determined as 219%. For the same compound, the Emax (fitted maximum activation) was determined as 245%.

With `CN(C)C(=O)c1cc2c(Oc3ccc(S(C)(=O)=O)cc3)cc(C(=O)Nc3ccn(C)n3)cc2o1` [Example 286, N2,N2-Dimethyl-N6-(1-methyl-1H-pyrazol-3-yl)-4-[4-(methylsulfonyl)phenoxy]-1-benzofuran-2,6-dicarboxamide], the EC50 is 2.6 µM. For the same compound, the activation at 10 µM under setting [1] stood at 178%. Further, the Emax (fitted maximum activation) came out at 224%.

On to `Cn1ccc(NC(=O)c2cc(Oc3ccc(-c4ncon4)nc3)c3c(c2)OC(C)(C)C3)n1` [Example 182, 2,2-Dimethyl-4-(6-[1,2,4]oxadiazol-3-yl-pyridin-3-yloxy)-2,3-dihydro-benzofuran-6-carboxylic acid (1-methyl-1H-pyrazol-3-yl)-amide], for which the 50% effective concentration (EC50) is 0.29 µM. Under setting [1], the activation at 10 µM is 244%. Moreover, the Emax (fitted maximum activation) came to 237%.

`Cc1cc2c(Oc3ccc(S(=O)(=O)N4CCC4)cc3)cc(C(=O)Nc3ccc(CO)cn3)cc2o1` [Example 301, 4-(4-(Azetidin-1-ylsulfonyl)phenoxy)-N-(5-(hydroxymethyl)-pyridin-2-yl)-2-methylbenzofuran-6-carboxamide]: the EC50 was found to be 0.15 µM. Under setting [1], the activation at 10 µM is 168%. Besides, the Emax (fitted maximum activation) worked out at 137%.

Turning to `Cc1ccc(NC(=O)c2cc(Oc3ccc(S(C)(=O)=O)cc3)c3cc(C(=O)N(C)C)oc3c2)nc1` [Example 285, N2,N2-Dimethyl-N6-(5-methylpyridin-2-yl)-4-(4-(methylsulfonyl)-phenoxy)-benzofuran-2,6-dicarboxamide], the EC50 stood at 0.547 µM. For the same compound, the activation at 10 µM under setting [1] was 121%. Also, where the note is “fitted maximum activation”, the Emax was 118%.

Regarding `Cc1ncccc1COc1cc(C(=O)Nc2ccn(C)n2)cc2c1CC(C)(C)O2` [Example 106, 2,2-Dimethyl-4-(2-methyl-pyridin-3-ylmethoxy)-2,3-dihydro-benzofuran-6-carboxylic acid (1-methyl-1H-pyrazol-3-yl)-amide], the concentration giving a half-maximal response (EC50) is 2.4 µM. Moreover, the activation at 10 µM under setting [1] was 143%. For the setting “fitted maximum activation”, the Emax was 141%.

`Cn1ccc(NC(=O)c2cc(Oc3ccc(S(C)(=O)=O)cc3)c3c(c2)OC(C(F)F)C3)n1` (stereo not drawn) [Example 225, 2-Difluoromethyl-4-(4-methanesulfonyl-phenoxy)-2,3-dihydro-benzofuran-6-carboxylic acid (1-methyl-1H-pyrazol-3-yl)-amide]: the concentration for a half-maximal effect (EC50) was determined as 2.93 µM. Further, the activation at 10 µM under setting [1] is 103%. In addition, the Emax (fitted maximum activation) is 242%.

As for `Cn1ccc(NC(=O)c2cc(Oc3ccc(C(=O)NCCO)c(F)c3)c3c(c2)OC(C)(C)C3)n1` [Example 72, 4-[3-Fluoro-4-(2-hydroxy-ethylcarbamoyl)-phenoxy]-2,2-dimethyl-2,3-dihydro-benzofuran-6-carboxylic acid(1-methyl-1H-pyrazol-3-yl)-amide], the EC50 amounted to 0.95 µM. Also, the activation at 10 µM under setting [1] worked out at 182%. Further, the Emax (fitted maximum activation) stood at 161%.

On to `Cc1ccc(NC(=O)c2cc(Oc3ccc(S(C)(=O)=O)cc3)c3ocnc3c2)nc1` [Example 367, N-(5-methylpyridin-2-yl)-7-[4-(methylsulfonyl)phenoxy]-1,3-benzoxazole-5-carboxamide], for which the EC50 is 5.8 µM. Besides, the activation at 10 µM under setting [1] was found to be 47%. Moreover, under “fitted maximum activation”, the Emax came to 59%.

For the compound `CCc1cc2c(Oc3ccc(S(C)(=O)=O)cc3)cc(C(=O)Nc3ccn(C)n3)cc2o1` [Example 275, 2-Ethyl-N-(1-methyl-1H-pyrazol-3-yl)-4-[4-(methylsulfonyl)-phenoxy]-1-benzofuran-carboxamide], the concentration giving a half-maximal response (EC50) came out at 2.6 µM. Under setting [1], the activation at 10 µM turned out to be 211%. In addition, where the note is “fitted maximum activation”, the Emax was determined as 210%.

As for `COCC1(C)Cc2c(Oc3ccc(S(=O)(=O)C4CC4)cc3)cc(C(=O)Nc3ccn(C)n3)cc2O1` (single isomer, unassigned; (+)) [Example 248, (+)-4-(4-Cyclopropanesulfonyl-phenoxy)-2-methoxymethyl-2-methyl-2,3-dihydro-benzofuran-6-carboxylic acid (1-methyl-1H-pyrazol-3-yl)-amide], the EC50 was determined as 0.49 µM. In addition, the “% Activation at 10 uM” value under setting [1] was 222%. In addition, where the note is “fitted maximum activation”, the “% Max Activation” value was determined as 225%.

With `CN(C)S(=O)(=O)c1ccc(Oc2cc(C(=O)Nc3ccn(C)n3)cc3c2CC(C)(C)O3)cc1F` [Example 130, 4-(4-Dimethylsulfamoyl-3-fluoro-phenoxy)-2,2-dimethyl-2,3-dihydro-benzofuran-6-carboxylic acid (1-methyl-1H-pyrazol-3-yl)-amide], the EC50 was found to be 0.14 µM. Moreover, the activation at 10 µM under setting [1] was found to be 211%. The Emax (fitted maximum activation) amounted to 236%.

As for `Cn1ccc(NC(=O)c2cc(OCC3CC3)c3c(c2)OC(C)(C)C3)n1` [Example 89, 4-Cyclopropylmethoxy-2,2-dimethyl-2,3-dihydro-benzofuran-6-carboxylic acid (1-methyl-1H-pyrazol-3-yl)-amide], the EC50 came to 3.9 µM. The activation at 10 µM under setting [1] worked out at 139%. Also, for the setting “fitted maximum activation”, the Emax stood at 157%.

As for `CCS(=O)(=O)c1ccc(Oc2cc(C(=O)Nc3ccc(C)cn3)cc3c2CC(C)(C)O3)cc1` [Example 126, 4-(4-Ethanesulfonyl-phenoxy)-2,2-dimethyl-2,3-dihydro-benzofuran-6-carboxylic acid (5-methyl-pyridin-2-yl)-amide], the EC50 came to 0.037 µM. Moreover, the activation at 10 µM under setting [1] was determined as 137%. For the same compound, the Emax (fitted maximum activation) amounted to 118%.

`Cc1ccc(NC(=O)c2cc(OC(C)C)cc3occc23)nc1` [Example 344, 6-Isopropoxy-N-(5-methylpyridin-2-yl)benzofuran-4-carboxamide]: the EC50 stood at 1.4 µM. Under setting [1], the activation at 10 µM was determined as 89.5%. Moreover, the Emax (fitted maximum activation) worked out at 106%.

With `Cn1ccc(NC(=O)c2cc(Oc3ccc(S(C)(=O)=O)cc3)c3c(c2F)OC(C)(C)C3)n1` [Example 190, 7-Fluoro-4-(4-methanesulfonyl-phenoxy)-2,2-dimethyl-2,3-dihydro-benzofuran-6-carboxylic acid (1-methyl-1H-pyrazol-3-yl)-amide], the concentration giving a half-maximal response (EC50) was 7.3 µM. Besides, under setting [1], the activation at 10 µM was 83.9%. Where the note is “fitted maximum activation”, the Emax was 138%.

Consider `Cc1ccc(NC(=O)c2cc(Oc3ccc(S(C)(=O)=O)cc3)c3sc(C)cc3c2)nc1` [Example 329, 2-Methyl-N-(5-methylpyridin-2-yl)-7-[4-(methylsulfonyl)-phenoxy]-1-benzothiophene-5-carboxamide], for which the concentration giving a half-maximal response (EC50) worked out at 1.6 µM. In addition, the activation at 10 µM under setting [1] came to 86.8%. For the same compound, the Emax (fitted maximum activation) worked out at 113%.

Turning to `CN(C)S(=O)(=O)c1ccc(Oc2cc(C(=O)Nc3cnn(C)n3)cc3c2CC(C)(C)O3)cc1` [Example 134, 4-(4-Dimethylsulfamoyl-phenoxy)-2,2-dimethyl-2,3-dihydro-benzofuran-6-carboxylic acid (2-methyl-2H-[1,2,3]triazol-4-yl)-amide], the 50% effective concentration (EC50) worked out at 0.19 µM. The activation at 10 µM under setting [1] was 300%. Also, the Emax (fitted maximum activation) is 271%.

(Values after US8119624B2, “Fused phenyl amido heterocyclic compounds” (Pfizer Inc., priority 2006, dated 2012).)
